Measured values from ChEMBL document CHEMBL4507274 (2021).

What was measured:
[1] = system: Epidermal growth factor receptor (Homo sapiens), P00533 [G719C]; conditions: Compound concentration 100.0 nM
[2] = target: Calcium/calmodulin-dependent protein kinase type II subunit beta (Homo sapiens) (UniProt Q13554); conditions: Compound concentration 100.0 nM
[3] = target: Sodium-dependent noradrenaline transporter (Homo sapiens) (UniProt P23975); conditions: Compound concentration 10.0 uM
[4] = system: Epidermal growth factor receptor (Homo sapiens), P00533 [UNDEFINED MUTATION]; conditions: Compound concentration 100.0 nM
[5] = target: Ribosomal protein S6 kinase alpha-3 (Homo sapiens) (UniProt P51812); experiment: Rsk2 (h) Upstate kinase activity assay; conditions: Compound concentration 10.0 uM
[6] = target: Calcium/calmodulin-dependent protein kinase type II subunit gamma (Rattus norvegicus) (UniProt P11730); experiment: CaMKII (r) Upstate kinase activity assay; conditions: Compound concentration 10.0 uM
[7] = target: Tyrosine-protein kinase ABL2 (Mus musculus) (UniProt Q4JIM5); experiment: Arg (m) Upstate kinase activity assay; conditions: Compound concentration 10.0 uM
[8] = target: Hepatocyte growth factor receptor (Homo sapiens) (UniProt P08581); experiment: Met (h) Upstate kinase activity assay; conditions: Compound concentration 10.0 uM
[9] = target: Rho-associated protein kinase 2 (Rattus norvegicus, UniProt Q62868); experiment: (§1) ROCK-2 (r) Upstate kinase activity assay
[10] = target: Rho-associated protein kinase 2 (Rattus norvegicus) (UniProt Q62868); experiment: as §1; conditions: Compound concentration 10.0 uM
[11] = system: MIA PaCa-2; experiment: Pancreas MIA PaCa-2 cell line MDS Pharma Services Proliferation Assay; type: functional, cell-based, Homo sapiens
[12] = target: Tyrosine-protein kinase Blk (Mus musculus) (UniProt P16277); experiment: Blk (m) Upstate kinase activity assay; conditions: Compound concentration 10.0 uM
[13] = target: Cyclin-dependent kinase 3 (Homo sapiens) (UniProt Q00526); experiment: CDK3/ cyclin E (h) Upstate kinase activity assay; conditions: Compound concentration 10.0 uM
[14] = species on record: Rattus norvegicus; experiment: Rsk1 (r) Upstate kinase activity assay; conditions: Compound concentration 10.0 uM
[15] = target: Sigma non-opioid intracellular receptor 1 (Homo sapiens, UniProt Q99720); experiment: GPCRScan assay: inhibition of Sigma 1; set-up: radioligand conc. used [nm] 4.0 – 5.0, parental cells HEKT
[16] = target: Protein kinase C theta type (Homo sapiens) (UniProt Q04759); experiment: PKCtheta (h) Upstate kinase activity assay; conditions: Compound concentration 10.0 uM
[17] = system: Tyrosine-protein kinase ABL1 (Homo sapiens), P00519 [T315I]; experiment: Abl(T315I) (h) Upstate kinase activity assay; conditions: Compound concentration 10.0 uM
[18] = target: Tyrosine-protein kinase ABL1 (Mus musculus) (UniProt P00520); experiment: Abl (m) Upstate kinase activity assay; conditions: Compound concentration 10.0 uM
[19] = target: Serine/threonine-protein kinase MARK2 (Homo sapiens) (UniProt Q7KZI7); experiment: PAR-1Balpha (h) Upstate kinase activity assay; conditions: Compound concentration 10.0 uM
[20] = target: BDNF/NT-3 growth factors receptor (Homo sapiens) (UniProt Q16620); experiment: TrkB (h) Upstate kinase activity assay; conditions: Compound concentration 10.0 uM
[21] = target: Rho-associated protein kinase 2 (Homo sapiens, UniProt O75116); conditions: Compound concentration 10.0 uM
[22] = target: T1, Serine/threonine-protein kinase Chk1 (Homo sapiens) (UniProt O14757); experiment: CHK1 (h) Upstate kinase activity assay; conditions: Compound concentration 10.0 uM
T1 sequence (whole entry): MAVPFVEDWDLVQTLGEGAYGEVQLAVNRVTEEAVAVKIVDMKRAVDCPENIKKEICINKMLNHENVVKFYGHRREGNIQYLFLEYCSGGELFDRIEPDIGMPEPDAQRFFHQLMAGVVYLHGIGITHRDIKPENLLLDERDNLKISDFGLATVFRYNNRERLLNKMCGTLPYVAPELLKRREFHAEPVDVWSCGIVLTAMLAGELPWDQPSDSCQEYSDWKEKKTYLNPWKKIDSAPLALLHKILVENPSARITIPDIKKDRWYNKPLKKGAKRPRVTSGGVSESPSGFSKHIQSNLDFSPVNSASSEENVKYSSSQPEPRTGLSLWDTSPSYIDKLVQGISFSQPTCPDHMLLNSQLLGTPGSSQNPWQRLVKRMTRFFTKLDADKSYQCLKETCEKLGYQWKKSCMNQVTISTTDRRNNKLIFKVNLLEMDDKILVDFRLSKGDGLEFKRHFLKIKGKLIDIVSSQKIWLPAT

[23] = target: T2, Protein kinase C iota type (Homo sapiens) (UniProt P41743); experiment: PKCiota (h) Upstate kinase activity assay; conditions: Compound concentration 10.0 uM
T2 sequence (whole entry): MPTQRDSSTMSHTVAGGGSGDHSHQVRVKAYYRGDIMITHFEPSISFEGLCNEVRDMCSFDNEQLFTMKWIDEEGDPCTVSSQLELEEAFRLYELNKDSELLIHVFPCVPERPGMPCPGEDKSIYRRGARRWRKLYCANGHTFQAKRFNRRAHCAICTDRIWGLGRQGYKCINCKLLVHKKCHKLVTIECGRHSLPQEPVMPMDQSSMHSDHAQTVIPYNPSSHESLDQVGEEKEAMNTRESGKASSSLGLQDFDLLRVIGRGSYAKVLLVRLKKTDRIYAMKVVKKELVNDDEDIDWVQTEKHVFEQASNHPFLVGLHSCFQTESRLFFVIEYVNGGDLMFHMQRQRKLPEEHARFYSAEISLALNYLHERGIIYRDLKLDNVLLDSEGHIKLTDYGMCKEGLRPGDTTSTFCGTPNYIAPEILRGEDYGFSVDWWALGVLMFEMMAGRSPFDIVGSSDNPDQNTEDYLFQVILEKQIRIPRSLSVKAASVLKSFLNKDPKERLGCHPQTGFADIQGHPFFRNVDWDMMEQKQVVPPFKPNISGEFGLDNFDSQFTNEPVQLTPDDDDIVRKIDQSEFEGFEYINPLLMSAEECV

Sequence of Rho-associated protein kinase 2 (Homo sapiens, UniProt O75116) (O75116 whole entry, looked up): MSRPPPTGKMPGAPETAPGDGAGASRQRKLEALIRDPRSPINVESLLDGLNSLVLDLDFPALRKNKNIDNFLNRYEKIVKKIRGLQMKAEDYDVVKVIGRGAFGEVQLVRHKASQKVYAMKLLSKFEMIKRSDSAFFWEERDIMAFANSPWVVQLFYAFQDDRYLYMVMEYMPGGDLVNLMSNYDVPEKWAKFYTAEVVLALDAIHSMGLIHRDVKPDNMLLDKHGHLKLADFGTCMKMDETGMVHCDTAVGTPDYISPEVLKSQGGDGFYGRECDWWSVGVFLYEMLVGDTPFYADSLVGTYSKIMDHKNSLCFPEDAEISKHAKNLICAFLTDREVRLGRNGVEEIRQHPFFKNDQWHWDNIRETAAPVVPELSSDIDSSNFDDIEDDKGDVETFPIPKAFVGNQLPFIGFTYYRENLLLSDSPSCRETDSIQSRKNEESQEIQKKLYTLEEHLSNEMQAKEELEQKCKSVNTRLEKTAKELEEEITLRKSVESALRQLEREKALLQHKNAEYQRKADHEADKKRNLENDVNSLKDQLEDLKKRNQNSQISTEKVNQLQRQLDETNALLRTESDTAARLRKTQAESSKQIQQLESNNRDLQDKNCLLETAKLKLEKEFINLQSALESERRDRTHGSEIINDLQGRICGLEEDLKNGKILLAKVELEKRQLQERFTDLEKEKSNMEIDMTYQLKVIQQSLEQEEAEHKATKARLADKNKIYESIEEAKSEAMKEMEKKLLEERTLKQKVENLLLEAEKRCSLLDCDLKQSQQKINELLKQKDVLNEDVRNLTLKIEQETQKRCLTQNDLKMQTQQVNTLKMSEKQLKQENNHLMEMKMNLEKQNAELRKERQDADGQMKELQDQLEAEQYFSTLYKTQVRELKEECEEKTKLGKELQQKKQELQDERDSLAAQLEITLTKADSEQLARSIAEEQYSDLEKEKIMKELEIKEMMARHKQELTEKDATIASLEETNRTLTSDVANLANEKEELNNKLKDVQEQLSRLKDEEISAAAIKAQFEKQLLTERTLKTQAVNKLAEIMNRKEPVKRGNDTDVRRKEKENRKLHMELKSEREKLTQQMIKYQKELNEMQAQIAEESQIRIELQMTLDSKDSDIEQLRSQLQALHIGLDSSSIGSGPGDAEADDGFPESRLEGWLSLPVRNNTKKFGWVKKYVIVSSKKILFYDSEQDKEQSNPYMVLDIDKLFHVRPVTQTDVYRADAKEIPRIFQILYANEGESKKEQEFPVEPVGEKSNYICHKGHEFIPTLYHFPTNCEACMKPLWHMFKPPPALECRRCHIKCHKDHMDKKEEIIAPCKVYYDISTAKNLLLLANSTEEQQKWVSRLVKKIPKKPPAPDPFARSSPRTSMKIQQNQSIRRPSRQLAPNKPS
Sequence of BDNF/NT-3 growth factors receptor (Homo sapiens) (Q16620 32-822 limits assumed): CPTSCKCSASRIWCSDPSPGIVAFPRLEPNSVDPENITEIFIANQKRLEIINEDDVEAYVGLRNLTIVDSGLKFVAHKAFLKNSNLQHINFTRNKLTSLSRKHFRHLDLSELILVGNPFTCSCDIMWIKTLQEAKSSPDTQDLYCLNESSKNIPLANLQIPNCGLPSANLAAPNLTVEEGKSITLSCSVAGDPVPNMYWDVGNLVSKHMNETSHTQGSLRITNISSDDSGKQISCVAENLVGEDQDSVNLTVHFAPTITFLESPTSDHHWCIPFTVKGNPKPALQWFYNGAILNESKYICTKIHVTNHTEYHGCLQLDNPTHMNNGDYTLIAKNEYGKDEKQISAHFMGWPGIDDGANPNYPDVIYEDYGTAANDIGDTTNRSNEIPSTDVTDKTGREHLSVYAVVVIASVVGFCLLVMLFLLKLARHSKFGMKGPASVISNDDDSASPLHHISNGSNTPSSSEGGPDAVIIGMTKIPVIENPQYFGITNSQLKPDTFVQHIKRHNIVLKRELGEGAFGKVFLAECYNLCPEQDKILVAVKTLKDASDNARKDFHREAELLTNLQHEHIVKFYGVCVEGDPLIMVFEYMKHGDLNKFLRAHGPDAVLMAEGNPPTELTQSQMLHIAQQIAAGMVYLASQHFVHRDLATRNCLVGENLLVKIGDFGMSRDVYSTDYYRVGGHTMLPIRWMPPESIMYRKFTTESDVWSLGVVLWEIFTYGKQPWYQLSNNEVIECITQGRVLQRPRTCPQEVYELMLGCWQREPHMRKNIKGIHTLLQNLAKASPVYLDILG
Sequence of Cyclin-dependent kinase 3 (Homo sapiens) (Q00526 whole entry, looked up): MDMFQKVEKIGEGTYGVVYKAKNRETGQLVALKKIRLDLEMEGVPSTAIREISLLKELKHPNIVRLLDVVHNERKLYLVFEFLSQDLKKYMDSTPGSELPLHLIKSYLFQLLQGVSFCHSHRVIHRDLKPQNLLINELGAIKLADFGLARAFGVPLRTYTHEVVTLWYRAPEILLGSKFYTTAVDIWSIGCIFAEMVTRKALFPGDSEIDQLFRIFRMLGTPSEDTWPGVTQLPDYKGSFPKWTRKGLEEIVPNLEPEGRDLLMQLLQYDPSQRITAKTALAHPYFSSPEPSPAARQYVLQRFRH
Sequence of Tyrosine-protein kinase ABL1 (Mus musculus) (P00520 whole entry): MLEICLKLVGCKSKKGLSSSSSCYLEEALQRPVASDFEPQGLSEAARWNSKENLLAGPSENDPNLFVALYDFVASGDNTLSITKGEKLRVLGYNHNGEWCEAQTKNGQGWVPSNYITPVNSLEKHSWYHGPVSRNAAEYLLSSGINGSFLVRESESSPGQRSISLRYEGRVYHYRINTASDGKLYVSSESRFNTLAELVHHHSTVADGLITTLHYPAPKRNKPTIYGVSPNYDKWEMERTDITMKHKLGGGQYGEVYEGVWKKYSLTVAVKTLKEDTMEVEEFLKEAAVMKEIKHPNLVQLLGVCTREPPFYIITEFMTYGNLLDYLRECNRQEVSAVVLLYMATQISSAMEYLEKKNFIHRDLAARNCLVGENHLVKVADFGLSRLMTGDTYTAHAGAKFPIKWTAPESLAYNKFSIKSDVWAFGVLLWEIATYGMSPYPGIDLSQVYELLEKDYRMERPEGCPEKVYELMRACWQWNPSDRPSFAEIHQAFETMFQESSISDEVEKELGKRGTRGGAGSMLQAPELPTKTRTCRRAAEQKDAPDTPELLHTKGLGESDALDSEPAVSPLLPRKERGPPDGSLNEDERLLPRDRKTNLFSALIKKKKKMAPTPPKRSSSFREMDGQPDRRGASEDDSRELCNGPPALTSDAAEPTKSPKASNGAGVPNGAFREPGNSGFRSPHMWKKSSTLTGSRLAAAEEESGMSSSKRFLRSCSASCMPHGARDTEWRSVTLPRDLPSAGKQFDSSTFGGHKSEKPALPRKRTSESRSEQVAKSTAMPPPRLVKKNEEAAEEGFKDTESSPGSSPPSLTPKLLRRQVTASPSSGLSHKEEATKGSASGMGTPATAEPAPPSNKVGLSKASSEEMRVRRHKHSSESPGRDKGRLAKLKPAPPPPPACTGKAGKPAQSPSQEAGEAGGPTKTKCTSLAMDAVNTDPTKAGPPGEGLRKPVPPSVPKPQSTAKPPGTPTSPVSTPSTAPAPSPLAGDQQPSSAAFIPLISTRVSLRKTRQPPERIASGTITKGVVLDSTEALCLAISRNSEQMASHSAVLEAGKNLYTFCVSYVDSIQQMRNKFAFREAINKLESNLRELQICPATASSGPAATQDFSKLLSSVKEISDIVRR
Sequence of Protein kinase C theta type (Homo sapiens) (Q04759 whole entry, looked up): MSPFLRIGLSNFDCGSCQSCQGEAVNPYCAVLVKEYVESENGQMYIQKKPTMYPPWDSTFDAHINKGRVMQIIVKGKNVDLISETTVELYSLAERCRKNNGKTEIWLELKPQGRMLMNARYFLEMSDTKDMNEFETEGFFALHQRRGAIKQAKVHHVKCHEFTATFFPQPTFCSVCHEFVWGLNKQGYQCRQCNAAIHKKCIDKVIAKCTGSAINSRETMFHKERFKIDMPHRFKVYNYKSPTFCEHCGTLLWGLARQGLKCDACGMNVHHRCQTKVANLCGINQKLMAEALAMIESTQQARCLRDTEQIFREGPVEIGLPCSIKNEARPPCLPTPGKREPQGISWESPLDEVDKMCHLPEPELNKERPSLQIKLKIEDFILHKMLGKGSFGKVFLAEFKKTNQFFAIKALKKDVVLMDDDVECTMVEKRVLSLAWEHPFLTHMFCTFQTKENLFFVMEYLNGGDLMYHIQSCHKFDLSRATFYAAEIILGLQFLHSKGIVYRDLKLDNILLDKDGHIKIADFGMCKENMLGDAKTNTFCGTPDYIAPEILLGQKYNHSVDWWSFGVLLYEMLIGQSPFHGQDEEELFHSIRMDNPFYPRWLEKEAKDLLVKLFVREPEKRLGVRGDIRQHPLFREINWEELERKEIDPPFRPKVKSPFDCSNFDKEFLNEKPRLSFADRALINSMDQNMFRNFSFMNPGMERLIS
Sequence of Sigma non-opioid intracellular receptor 1 (Q99720 whole entry): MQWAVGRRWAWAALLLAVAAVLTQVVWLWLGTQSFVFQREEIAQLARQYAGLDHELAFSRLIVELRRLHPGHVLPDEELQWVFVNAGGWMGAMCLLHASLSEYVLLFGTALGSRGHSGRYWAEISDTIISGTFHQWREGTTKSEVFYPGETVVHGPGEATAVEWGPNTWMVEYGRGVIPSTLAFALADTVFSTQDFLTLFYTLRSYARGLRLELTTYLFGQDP
Sequence of Tyrosine-protein kinase Blk (Mus musculus) (P16277 whole entry, looked up): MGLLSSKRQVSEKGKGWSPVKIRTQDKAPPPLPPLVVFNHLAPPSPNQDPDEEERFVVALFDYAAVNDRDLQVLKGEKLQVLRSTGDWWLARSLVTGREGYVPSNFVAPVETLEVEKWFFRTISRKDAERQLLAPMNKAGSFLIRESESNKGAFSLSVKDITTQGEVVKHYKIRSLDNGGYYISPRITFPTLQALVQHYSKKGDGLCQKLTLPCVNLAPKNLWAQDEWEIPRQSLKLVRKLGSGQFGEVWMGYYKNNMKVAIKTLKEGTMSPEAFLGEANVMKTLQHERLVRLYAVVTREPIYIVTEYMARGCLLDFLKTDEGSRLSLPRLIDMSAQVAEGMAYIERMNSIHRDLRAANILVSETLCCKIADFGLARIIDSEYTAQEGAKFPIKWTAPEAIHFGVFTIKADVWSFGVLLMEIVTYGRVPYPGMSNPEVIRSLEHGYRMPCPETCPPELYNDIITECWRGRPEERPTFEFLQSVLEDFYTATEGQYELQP

Compound: Cn1cc(Cl)c2c(Oc3c(F)cc(Nc4cc(Cl)nc(N)n4)cc3F)ccnc21 [BAY-4900]
- residual activity [1]: 95%
- residual activity [2]: 100%
- inhibition [3]: 3.14%
- residual activity [4]: 94%

Compound: Cc1c[nH]c2nccc(Oc3c(F)cc(Nc4cc(Cl)nc(N)n4)cc3F)c12 [BAY-549]
- inhibition [5]: 61%
- inhibition [6]: 7%
- inhibition [7]: 36%
- inhibition [8]: 82%
- IC50 [9]: < 0.001 µM
- inhibition [10]: 102%
- Mean % growth (n = 2) for 10.0 µM probe concentration [11]: 45%
- IC50 ([11]; Homo sapiens, MIA PaCa-2): 8.9 µM
- TGI ([11]; Homo sapiens, MIA PaCa-2): 48 µM
- CC50 ([11]; Homo sapiens, MIA PaCa-2, read-out: LC50 (the source's name)): > 100 µM
- Mean % growth (n = 2) for 0.1 µM probe concentration ([11]; ± SEM 1 % growth): 98%
- Mean % growth (n = 2) for 0.01 µM probe concentration ([11]; ± SEM 3 % growth): 95%
- Mean % growth (n = 2) for 1.0 µM probe concentration ([11]; ± SEM 3 % growth): 88%
- Mean % growth (n = 2) for 100.0 µM probe concentration ([11]; ± SEM 5 % growth): -23%
- inhibition [12]: 16%
- inhibition [13]: 33%
- inhibition [14]: 79%
- Ki [15]: 6.77 µM
- inhibition [16]: 42%
- inhibition [17]: 28%
- inhibition [18]: 33%
- inhibition [19]: 33%
- inhibition [20]: 84%
- inhibition [21]: 100%
- inhibition [22]: 9%
- inhibition [23]: 18%
